Assays:
Assay in all cases: relative viability (nuclei count vs DMSO), 5 days (fraction); higher = more cells survive
[1] = compound: Cc1ccc2nc(NCCN)c3ncc(C)n3c2c1
How it was run: (§1)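 After an overnight hold at 37 °C, lung cancer cell lines in 1536-well plates were pinned with five library-drug doses (not always all listed), each √10 from the next, on vehicle-anchored plates. The cells stayed 5 days without fresh medium, then a one-step fix, permeabilisation and Hoechst stain preceded 4× imaging and MetaXpress nuclear counts. A plate passed only with control CV under 25% and at least one doubling. Viability is the median, over plates, of treated-well nuclei relative to vehicle-well nuclei.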

Salubrinal = compound: O=C(/C=C/c1ccccc1)NC(NC(=S)Nc1cccc2cccnc12)C(Cl)(Cl)Cl [Salubrinal]
How it was run: as §1

Salubrinal + Bortezomib = compound: O=C(/C=C/c1ccccc1)NC(NC(=S)Nc1cccc2cccnc12)C(Cl)(Cl)Cl [Salubrinal] + CC(C)C[C@H](NC(=O)[C@H](Cc1ccccc1)NC(=O)c1cnccn1)B(O)O [Bortezomib] (partner 0.002 µM)
How it was run: (§2)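 One day after seeding in 1536-well plates, lung cancer cell lines were dosed by pin tool. Dosing was either single-drug or a fixed anchor-drug dose plus five library-drug doses (not always all listed) in √10 steps. After 5 days, nuclei were stained in one fix-and-stain step and counted on 4× images, and relative viability is the nuclei count of treated wells over that of vehicle wells, given as the median of duplicate plates.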

[2] = compound: Cc1ccc2nc(NCCN)c3ncc(C)n3c2c1 + Cc1nc(NC(=O)N2CCC[C@H]2C(N)=O)sc1-c1ccnc(C(C)(C)C(F)(F)F)c1 [Alpelisib] (partner 2 µM)
How it was run: as §2

Cell Line	relative viability ([1]; 0.04 µM)	relative viability ([1]; 0.1265 µM)	relative viability ([1]; 0.4 µM)	relative viability ([1]; 1.265 µM)	relative viability ([1]; 4 µM)	relative viability (Salubrinal; 0.08 µM)	relative viability (Salubrinal; 0.253 µM)	relative viability (Salubrinal; 0.8 µM)	relative viability (Salubrinal; 2.53 µM)	relative viability (Salubrinal; 8 µM)	relative viability (Salubrinal + Bortezomib; first compound 0.08 µM)	relative viability (Salubrinal + Bortezomib; first compound 0.253 µM)	relative viability (Salubrinal + Bortezomib; first compound 0.8 µM)	relative viability (Salubrinal + Bortezomib; first compound 2.53 µM)	relative viability (Salubrinal + Bortezomib; first compound 8 µM)	relative viability ([2]; first compound 0.04 µM)	relative viability ([2]; first compound 0.1265 µM)	relative viability ([2]; first compound 0.4 µM)	relative viability ([2]; first compound 1.265 µM)	relative viability ([2]; first compound 4 µM)
NCI-H1651	1.02	0.95	0.991	0.971	0.917	1.13	0.905	1.13	0.964	0.988	0.972	0.925	0.994	0.925	0.921	0.996	0.885	0.905	0.936	0.834
NCI-H1703	1.07	1.07	1.01	1.16	0.91	1.12	1.03	0.994	0.881	0.942	0.365	0.268	0.242	0.322	0.293	0.472	0.36	0.275	0.388	0.348
Calu-6	1.03	0.986	0.974	1.02	0.854	1.17	0.925	1.01	0.981	0.936	1.18	0.856	1.11	1.01	0.918	1.05	0.923	1.01	1.04	0.719
EBC-1	1.08	0.976	0.934	0.946	0.79	1.02	0.923	1.12	0.887	0.902	0.719	0.544	0.504	0.501	0.466	1.04	0.734	0.795	0.643	0.617
SW 1573	0.989	1.02	1	1.05	0.776	1.07	1.05	1.03	0.998	0.994	1.36	0.779	1.27	0.834	0.982	0.81	0.667	0.871	0.572	0.676
A-427	1.01	1.01	0.968	1.05	0.95	1.06	0.973	1.12	0.965	1.08	0.96	0.908	1.12	0.961	1.06	1.09	1.13	1.05	1.07	1.14
NCI-H2347	1.06	1.12	0.911	0.986	0.962	0.94	1.03	1.15	1.08	1.07	1.05	1.04	0.998	1.17	1.04	1.06	0.978	1.06	0.91	1.01
NCI-H1355	1.05	0.983	0.938	0.995	0.935	1.11	0.941	1.03	0.979	0.955	1.32	1.15	1.2	1.32	1.22	0.783	0.862	0.819	0.763	0.797
PC-3 [JPC-3]	1.01	1.05	1	1.09	0.998	1.05	0.915	1.16	1.04	0.969	0.775	0.718	0.89	0.863	0.75	1.03	1.08	1.05	0.983	1.03
NCI-H2228	1.15	0.992	1.03	0.915	0.838	1.23	0.757	1.21	1.04	0.968	1.08	1.18	1.26	0.983	0.876	0.626	0.639	0.974	0.832	0.613
HOP-62	0.97	1	0.827	1.04	0.984	1.01	0.981	1.11	1.06	0.98	0.392	0.576	0.601	0.874	1.04	0.981	0.946	0.942	0.667	0.975
HARA	0.913	0.956	0.928	0.843	0.973	1	0.956	1.02	0.908	1.17	1.14	1.01	1.16	1.13	1.06	0.839	0.831	0.804	0.715	0.788
NCI-H838	1.03	0.951	0.912	0.907	0.929	1.1	0.987	1.07	1.07	0.922	0.82	0.749	0.983	0.911	0.608	1.01	0.961	0.938	0.883	0.899
NCI-H1755	1.07	0.979	0.964	0.992	0.962	1.07	1.04	1.06	0.959	0.968	1.06	0.968	1.05	1	0.945	0.978	0.928	0.898	0.962	0.908
HCC-78	1.08	0.979	0.919	0.943	0.826	1.03	0.937	1.27	0.949	0.891	0.516	0.579	0.521	0.537	0.427	0.338	0.337	0.288	0.309	0.308
IA-LM	0.989	0.984	0.761	0.756	0.743	0.983	0.9	1.15	0.903	0.922	1.01	0.874	0.895	0.68	0.758	0.762	0.738	0.682	0.913	0.804

Cell Line	relative viability ([1]; 0.04 µM)	relative viability ([1]; 0.1265 µM)	relative viability ([1]; 0.4 µM)	relative viability ([1]; 1.265 µM)	relative viability ([1]; 4 µM)	relative viability (Salubrinal; 0.08 µM)	relative viability (Salubrinal; 0.253 µM)	relative viability (Salubrinal; 0.8 µM)	relative viability (Salubrinal; 2.53 µM)	relative viability (Salubrinal; 8 µM)	relative viability (Salubrinal + Bortezomib; first compound 0.08 µM)	relative viability (Salubrinal + Bortezomib; first compound 0.253 µM)	relative viability (Salubrinal + Bortezomib; first compound 0.8 µM)	relative viability (Salubrinal + Bortezomib; first compound 2.53 µM)	relative viability (Salubrinal + Bortezomib; first compound 8 µM)	relative viability ([2]; first compound 0.04 µM)	relative viability ([2]; first compound 0.1265 µM)	relative viability ([2]; first compound 0.4 µM)	relative viability ([2]; first compound 1.265 µM)	relative viability ([2]; first compound 4 µM)
NCI-H322M	0.983	0.915	0.988	0.987	0.996	1.01	0.869	0.963	0.988	0.811	1.33	1.15	1.26	1.22	1.19	0.948	0.755	0.798	0.641	0.766
NCI-H3122	0.998	0.988	0.999	1.06	1.01	1.08	1	1.09	1.05	1.01	1	1.01	0.927	0.98	0.991	0.88	0.942	0.812	0.779	0.855
COR-L23	1.05	1.04	0.964	0.994	0.994	1.11	1.1	1.06	0.966	0.95	1.16	0.786	1.12	0.998	0.809	0.904	0.663	0.916	0.809	0.495
NCI-H2087	1.13	1.15	0.861	0.997	0.953	1.16	0.931	1.07	0.989	0.968	0.755	0.458	0.855	0.809	0.989	1.07	1.15	0.998	0.963	0.998
LC-2-ad	0.991	1.01	0.911	1.03	0.965	1.01	0.921	1.13	0.99	0.93	0.992	0.92	1.16	1	1.02	0.953	0.827	0.86	1	0.875
NCI-H1915	0.958	0.998	0.705	0.93	0.954	0.973	0.856	1.12	1.01	0.973	0.98	0.56	1.09	1.03	0.954	0.999	–	1.1	1.02	1.07
NCI-H2023	1.06	0.935	1.09	1.08	0.843	1.15	0.996	1.06	0.955	0.781	1.2	1.03	0.967	1.02	0.858	0.637	0.573	0.616	0.563	0.549
COR-L 105	0.997	0.864	0.955	1.05	0.801	0.93	0.895	0.94	0.88	0.83	0.756	0.829	0.86	0.816	0.604	0.977	1.04	1.27	1.13	0.75
RERF-LC-KJ	1.03	0.996	0.93	0.938	0.823	1.05	1.02	1.04	0.98	0.888	1.29	0.984	1.24	1.03	1.15	0.843	0.769	0.784	0.762	0.81
LXF-289	0.985	0.966	1.01	1.01	1.02	1.04	0.945	1.01	0.995	0.975	1.06	0.654	1.06	0.969	0.851	1.1	1.01	0.984	1.06	1.03
PC-14	1.04	0.963	0.927	0.917	0.671	1.11	0.96	1.13	1	0.862	0.94	0.639	0.979	1	0.874	1.03	0.893	0.92	0.896	0.806
NCI-H650	1.03	1.03	0.797	1.02	0.941	0.839	1.04	1.08	1.11	0.912	0.877	0.724	1.23	0.997	0.817	1.15	0.922	1.1	0.997	0.975
NCI-H1666	1.08	0.951	0.962	0.993	0.993	0.953	0.99	0.987	0.888	1.2	0.858	0.732	0.746	0.776	0.984	0.836	0.906	1.13	0.945	0.613
NCI-H2085	1.03	1	0.982	1.04	1.01	1.08	0.976	1.02	0.947	1.01	1.07	0.877	1.04	1.03	1.05	1.01	0.943	0.961	1.06	1.11
NCI-H1734	0.979	0.99	0.886	0.9	0.979	1.02	0.882	1.14	1.01	0.909	0.9	0.941	1.11	0.969	0.981	0.699	0.634	0.668	0.605	0.685
NCI-H2126	1.1	0.993	0.958	0.995	0.893	1.07	0.921	1.08	1.05	0.985	1.11	1.02	1.21	1.22	1.07	0.738	0.73	0.77	0.719	0.782
